Measured values as given in patent US10266497B2 (ABIDE THERAPEUTICS, INC., priority 2017, dated 2019).
pIC50: −log10 of the molar value.

Columns and labels:
[1] = target: T1, FAAH (Mus musculus, UniProt O08914); test: In vitro competitive activity-based protein profiling, FAAH, mouse; details: read-out: FAAH % inh. 1 μM (mouse)
T1 sequence (O08914 1-579): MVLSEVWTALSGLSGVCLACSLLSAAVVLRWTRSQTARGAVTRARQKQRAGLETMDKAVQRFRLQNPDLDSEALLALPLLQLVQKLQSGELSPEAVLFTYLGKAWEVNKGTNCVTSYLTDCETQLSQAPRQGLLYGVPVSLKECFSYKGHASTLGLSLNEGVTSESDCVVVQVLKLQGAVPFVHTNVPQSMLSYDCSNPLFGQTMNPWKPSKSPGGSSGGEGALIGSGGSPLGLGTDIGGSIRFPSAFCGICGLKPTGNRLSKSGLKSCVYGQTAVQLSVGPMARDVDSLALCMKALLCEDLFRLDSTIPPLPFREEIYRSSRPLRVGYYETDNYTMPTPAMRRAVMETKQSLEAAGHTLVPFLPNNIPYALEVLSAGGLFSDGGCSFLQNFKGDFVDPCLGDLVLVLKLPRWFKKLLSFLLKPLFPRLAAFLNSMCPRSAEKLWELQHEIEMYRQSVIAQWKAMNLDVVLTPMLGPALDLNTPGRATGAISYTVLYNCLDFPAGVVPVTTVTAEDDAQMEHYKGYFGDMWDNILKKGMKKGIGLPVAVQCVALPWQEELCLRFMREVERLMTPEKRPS

[2] = target: T2, MAGL (Mus musculus, UniProt O35678); test: Mouse brain proteomes from inhibitor treated mice (oral gavage, sacrificed 4 h after administration); assay type: in vivo; design: mouse brain membrane fraction for mouse assays; from tissue; host or cells: mouse brain (membrane fraction in vitro; brain proteomes of treated C57Bl/6J mice in vivo); details: 5 mg/kg oral gavage, C57Bl/6J mice, brain proteome 4 h after administration, read-out: MAGL % inh. 5 mg/kg (mouse)
T2 sequence (O35678 1-303): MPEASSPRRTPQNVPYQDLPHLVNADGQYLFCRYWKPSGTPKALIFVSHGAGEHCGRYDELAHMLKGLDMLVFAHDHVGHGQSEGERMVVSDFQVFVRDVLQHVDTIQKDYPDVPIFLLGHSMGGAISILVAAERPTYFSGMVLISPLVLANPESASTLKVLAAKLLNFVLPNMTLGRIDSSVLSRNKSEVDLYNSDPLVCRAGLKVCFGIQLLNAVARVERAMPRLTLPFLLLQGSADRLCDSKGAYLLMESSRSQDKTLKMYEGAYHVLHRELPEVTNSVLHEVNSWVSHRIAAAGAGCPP

[3] = target: T1, FAAH; test: Mouse brain proteomes from inhibitor treated mice (oral gavage, sacrificed 4 h after administration), FAAH; assay type: in vivo; design: mouse brain membrane fraction for mouse assays; from tissue; host or cells: mouse brain (membrane fraction in vitro; brain proteomes of treated C57Bl/6J mice in vivo); details: 5 mg/kg oral gavage, C57Bl/6J mice, brain proteome 4 h after administration, read-out: FAAH % inh. 5 mg/kg (mouse)
[4] = target: T3, FAAH (Homo sapiens, UniProt O00519); test: In vitro competitive activity-based protein profiling, FAAH, human; details: for inhibition at 1 µM: read-out: FAAH % inh. 1 μM (human)
T3 sequence (O00519 1-579): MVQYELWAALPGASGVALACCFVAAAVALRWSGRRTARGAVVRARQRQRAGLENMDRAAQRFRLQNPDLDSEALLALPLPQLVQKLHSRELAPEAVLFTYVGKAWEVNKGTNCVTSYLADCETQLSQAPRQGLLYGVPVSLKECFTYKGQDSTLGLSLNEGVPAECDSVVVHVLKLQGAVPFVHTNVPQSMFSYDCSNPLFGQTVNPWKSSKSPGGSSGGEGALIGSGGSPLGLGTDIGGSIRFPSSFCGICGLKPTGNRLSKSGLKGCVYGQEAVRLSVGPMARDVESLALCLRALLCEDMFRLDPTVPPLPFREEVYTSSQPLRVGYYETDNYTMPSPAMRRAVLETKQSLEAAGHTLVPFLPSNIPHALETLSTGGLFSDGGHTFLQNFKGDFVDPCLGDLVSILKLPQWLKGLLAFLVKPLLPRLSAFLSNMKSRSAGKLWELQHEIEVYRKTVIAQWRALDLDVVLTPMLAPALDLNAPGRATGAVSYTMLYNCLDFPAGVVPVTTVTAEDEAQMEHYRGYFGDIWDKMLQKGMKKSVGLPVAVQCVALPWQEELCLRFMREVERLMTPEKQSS

[5] = target: T2, MAGL; test: In vitro competitive activity-based protein profiling, MAGL, mouse; details: read-out: MAGL % inh. 1 μM (mouse)
[6] = target: T4, MAGL (Homo sapiens, UniProt Q99685); test: In vitro competitive activity-based protein profiling, MAGL, human; details: read-out: MAGL % inh. 1 μM (human)
T4 sequence (Q99685 1-303): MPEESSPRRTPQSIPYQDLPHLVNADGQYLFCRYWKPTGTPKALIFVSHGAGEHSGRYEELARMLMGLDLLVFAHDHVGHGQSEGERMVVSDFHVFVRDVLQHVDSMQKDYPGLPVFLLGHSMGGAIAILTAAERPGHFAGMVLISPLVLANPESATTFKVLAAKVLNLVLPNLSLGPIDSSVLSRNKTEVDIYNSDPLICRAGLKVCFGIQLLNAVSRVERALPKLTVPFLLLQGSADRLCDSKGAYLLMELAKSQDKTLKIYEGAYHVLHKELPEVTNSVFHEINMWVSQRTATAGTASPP

inhibition at 1 µM [1] [%] | inhibition at 5 mg/kg [2] [%] | inhibition at 5 mg/kg [3] [%] | inhibition at 1 µM [4] [%] | inhibition at 1 µM [5] [%] | inhibition at 1 µM [6] [%] | pIC50 [4] | Compound
0 to 25 | 0 to 25 | 0 to 25 | 0 to 25 | > 75 | > 75 |  | CN(Cc1ccc(C(F)(F)F)cc1N1CCCC1)C1(C)CCN(C(=O)n2ccc(C(=O)O)n2)CC1 [Example 456, 1-(4-methyl-4-(methyl(2-(pyrrolidin-1-yl)-4-(trifluoromethyl)benzyl)amino)piper-idine-1-carbonyl)-1H-pyrazole-3-carboxylic acid]
0 to 25 | 0 to 25 | 0 to 25 |  | > 75 |  | 5.00 to 6.00 | O=C(O)c1ccn(C(=O)N2CCN(Cc3cccc(C(F)(F)F)c3N3CCOCC3)CC2)n1 [Example 453, 1-(4-(2-morpholino-3-(trifluoromethyl)benzyl)piperazine-1-carbonyl)-1H-pyrazole-3-carboxylic acid]
0 to 25 | 0 to 25 | 0 to 25 | 0 to 25 | > 75 | > 75 |  | O=C(O)c1ccn(C(=O)N2CCN(Cc3ccc(C(F)(F)F)c(N4CC5COCC5C4)c3)CC2)n1 (centres unmarked) [Example 454, 1-(4-(3-(tetrahydro-1H-furo[3,4-c]pyrrol-5(3H)-yl)-4-(trifluoromethyl)benzyl)piperazine-1-carbonyl)-1H-pyrazole-3-carboxylic acid]
